The nature of series [1]: Rinse agent in co-solvent cleaning of solder flux. The settings on record: solvating agent 1 minute at about 55° C., then 30 seconds in boiling solvent. As for the experimental part:
The ability of alkoxy-substituted perfluorocompounds to function as a rinse agent in a co-solvent cleaning process was evaluated. The above-described aluminum coupon was coated with solder flux (available from Alpha Metals as Alpha 611 rosin, mildly activated flux) by immersing the coupon into a flux-filled beaker. The flux-coated coupon was then dried using a forced air convection drier. The initial amount of the flux on the coupon was determined by weighing it on an analytical balance to the nearest 0.1 mg. The coupon was immersed in a container of a mixed solvating agent comprising approximately 50% methyl decanoate and 50% dipropylene glycol di-n-butyl ether and was sonicated for 1 minute at approximately 55° C. The coupon was then immersed for 30 seconds into alkoxy-substituted perfluorocompound which had been heated to its boiling point. The coupon was weighed again, and the results were recorded in Table 5 below as percent oil removed from the coupon.

A short description of series [2]: Solvency properties: largest normal hydrocarbon alkane soluble at 50 percent by volume.
Protocol: A number of potential solvents were tested for their ability to dissolve hydrocarbons of increasing molecular weight according to the procedure described in U.S. Pat. No. 5,275,669 (Van Der Puy et al.), the description of which is incorporated herein by reference. The data shown in Table 1 were obtained by determining the largest normal hydrocarbon alkane which was soluble in a particular solvent at a level of 50 percent by volume. The numbers in the Table correspond with the carbon number of the largest alkane, e.g., “8” refers to octane. Measurements were made from room temperature up to the boiling point of the solvent. For comparative purposes, hydrofluorocarbons (HFCs) and perfluorocarbons (PFCs) were also tested using this method.
Using essentially the above-described method, the solvency properties of other alkoxy-substituted perfluorocompounds were tested at room temperature.
The nature of series [3]: Flash point testing ASTM D3278-89. Type of series: physicochemical. As for the experimental part: The alkoxy-substituted perfluorocompounds C4F9OCH3, C4F9OC2H5, and c-C6F11OCH3 were tested for flash point by the standard method defined by ASTM D3278-89.
Series [4] is described as follows: Fluorinated oil removal from aluminum coupon. The settings on record: Krytox 157FSM, room temperature. As for the experimental part:
Using essentially the same procedure as that described in Examples 8-10, the ability of the alkoxy-substituted perfluorocompounds to remove a fluorinated oil was evaluated. As in the previous Examples, a coupon was immersed in Krytox™ 157FSM perfluoropolyether oil having carboxylic acid end groups (available from DuPont), and the percent oil remaining after immersion in the solvent (at room temperature) was determined.

A short description of series [5]: Mineral oil removal from aluminum coupon, sonication in solvent. The settings on record: sonicated 1 minute. As for the experimental part: In the following Examples and Comparative Examples, the cleaning ability of the alkoxy-substituted perfluorocompounds used in the cleaning process of the invention was further evaluated. A 1.28 cm×1.28 cm×0.225 cm wire-wrapped, aluminum coupon was coated with white heavy mineral oil (available from Aldrich Chemical) by immersing the coupon in an oil-filled beaker. The initial amount of the oil on the coupon was determined by weighing it on an analytical balance to the nearest 0.1 mg. The coupon was immersed in a container of solvent and sonicated for 1 minute at the indicated temperature (see Table 3 below for the solvents and temperatures used). The coupon was then weighed again, and the results were recorded in Table 3 as percent oil removal.

Series [6] is described as follows: Pump oil removal with n-C6H14/perfluorocompound mixture at room temperature, ultrasonic. The settings on record: 40 volume % n-C6H14, 60 volume % fluorinated component, 60 seconds. As for the experimental part:
The above-described test coupon was dipped into DuoSeal Pump Oil (available from Sargent-Welch) and was then immersed in a mixture of 40 volume % n-C6H14 and 60 volume % alkoxy-substituted perfluorocompound (a cleaning composition of the invention) for 60 seconds at room temperature with ultrasonic agitation. The percent oil removal was determined in the above-described manner.

A short description of series [7]: Pump oil removal with boiling mixed terpenes/perfluorocompound mixture. The settings on record: boiling mixture 40 volume % mixed terpenes, 60 volume % fluorinated component. As for the experimental part: The above-described test coupon was dipped into DuoSeal Pump Oil (available from Sargent-Welch), was immersed in a boiling mixture of 40 volume % of a solvating agent comprising mixed terpenes having a boiling range of 243-274° C. and 60 volume % of alkoxy-substituted perfluorocompound (a cleaning composition of the invention), was cooled for 60 seconds, and was then immersed in mixture vapor for 30 seconds. The percent oil removal was determined in the above-described manner.

Series [8] can be described thus: Paraffinic oil removal: solvating agent, then rinse in boiling solvent. The following applies: methyl caproate/dipropylene glycol di-n-butyl ether 30 seconds, boiling rinse 30 seconds. How it is done: The above-described test coupon was dipped into a paraffinic oil comprising a mixture of linear and branched hydrocarbons (DuoSeal Pump Oil, available from Sargent Welch), was immersed in mixed solvating agent comprising approximately 50% methyl caproate and 50% dipropylene glycol di-n-butyl ether for 30 seconds, and was then rinsed in boiling alkoxy-substituted perfluorocompound for 30 seconds. The percent oil removal was determined in the above-described manner.

A short description of series [9]: Hydrolytic stability under more severely basic conditions (aqueous KOH reflux). The settings on record: refluxed at 58° C. for 19 hours. The class given is physicochemical. As for the experimental part: To assess hydrolytic stability under more severely basic conditions, C4F9OCH3 (125 g of 99.8% purity, 0.5 mole) was combined with potassium hydroxide ([…], dissolved in 26.1 g water) in a 250 mL flask equipped with an overhead stirrer, a condenser, and a thermometer, and the resulting solution was refluxed at 58° C. for 19 hours. Water (50 mL) was added to the solution after refluxing, and the resulting product was distilled. The lower fluorochemical phase of the resulting distillate was separated from the upper phase and was washed with water (100 mL) to yield 121.3 g of recovered C4F9OCH3, which was identical in purity and composition to the starting material (as shown by gas chromatography).

Series [10] is described as follows: Pump oil removal in vapor of boiling n-C6H14/perfluorocompound mixture. The following applies: vapor of boiling 40 volume % n-C6H14, 60 volume % fluorinated component; 60 seconds. As for the experimental part:
The above-described test coupon was dipped into DuoSeal Pump Oil (available from Sargent-Welch) and was then immersed in the vapor of a boiling mixture of 40 volume % n-C6H14 and 60 volume % alkoxy-substituted perfluorocompound (a cleaning composition of the invention), for 60 seconds. The percent oil removal was determined in the above-described manner.

A short description of series [11]: Stability in the presence of acid (96% sulfuric acid, GLC). The class given is physicochemical. As for the experimental part: To assess hydrolytic stability under acidic conditions, C4F9OCH3 (15 g, 0.06 mole) was combined with sulfuric acid (10 g of 96% by weight, 0.097 mole) in a 50 mL flask containing a stir bar and fitted with a reflux condenser. The resulting mixture was stirred for 16 hours at room temperature, and then the resulting upper fluorochemical phase was separated from the resulting lower sulfuric acid phase. […] Chem. 49, 4007 (1984), which states that “[f]luorine atoms attached to carbon which also bears an alkyl ether group are known to be labile to electrophilic reagents. They are readily hydrolyzed in concentrated sulfuric acid, thus providing a route to some esters of fluoroacids.”

SMILES strings stand for the structures.

Turning to `COC(F)(F)C(F)(F)C(F)(F)C(F)(F)F` [Example C4F9OCH3, perfluorobutyl methyl ether], the “% Removed” value in [1] is reported as 100.0%; in series [4], 99.1%. The “Largest Carbon Number of Longest Hydrocarbon Alkane to Dissolve” value in series [2] (20 weight % ether, 80 % n-butyl bromide) is recorded as 21; in [2] (20 weight % ether, 80 % t-DCE), 22; in series [2] (30 weight % ether, 70 % n-butyl bromide) it was 21; in series [2] (50 weight % ether, 50 % n-butyl bromide), 15; in [2] (50 weight % ether, 50 % t-DCE), 16; in series [2] (80 weight % ether, 20 % n-butyl bromide), 11. Besides, the “Largest Carbon Number of Longest Hydrocarbon Alkane to Dissolve” value in [2] (80 weight % ether, 20 % t-DCE) came out at 11; in [2] (100 weight % ether, 0 % n-butyl bromide), 9; in [2] (100 weight % ether, 0 % t-DCE), 9. Further, in [3], the Flash point entry is “no flash point”. The percent oil removal in series [5] (23 ° C.) is 60.3%; in series [5] (50 ° C.), 98.7%; in series [5] (60 ° C.), 99.9%. The “Percent Soil Removed” value in series [6] is 92.5%; in series [7], 86.4%; in series [8], 99.8%; in series [10], 90.8%. Further, the “Stability in the presence of base” value in series [9] is on record as “stable in the presence of the base”. Further, the “Stability in the presence of acid” value in series [11] (96% sulfuric acid, 16 hours at room temperature) is reported as “stable in the presence of the acid”. Also, in [11] (neat ether, sulfuric acid as in Stability in the Presence of Acid section), the “Stability in Presence of Acid: conversion to ester” value is listed as “no rxn. (0%”.

For the origin of these results see patent US20010044404A1, “Cleaning process and composition” (3M Innovative Properties Company, priority 1995, published 2001).
